Measured values published in paper PMC11973282, “RAS70 peptide targets multiforme glioblastoma by binding to the plasma membrane heat shock protein HSP70” (Frontiers in Oncology, 2025).

System: GL261 glioma
Parameters: species or system C57BL/6 mice
Conditions: mouse, in vivo
Experimental: The animals were anesthetized with a combination of Zoletil 100 (Virbac, France) and Rometar (Bioveta, Czech Republic). Rat glioma C6 (2х10^6) and mice glioma GL261 (1х10^6) cells were injected intracranially into the area of nucl. caudatus dexter.
For evaluation of the tumor retention of the RAS70 peptide in GL261 glioma-bearing mice the animals following tumor cells injection were randomly assigned to the study groups (6 animals each) as follows (1): control group – PBS i.v. injection via tail vein (100 μL) (2); i.v. administration of […] peptide (100 μl, 2.5 mg/kg) (3); i.v. administration of NGL-RGD-sCy7.5 peptide (100 μl, 2.5 mg/kg) (4); i.v. administration of TKD-sCy7.5 peptide (100 μl, 2.5 mg/kg) (5); i.v. administration of […] peptide (100 μl, 2.5 mg/kg). Following clinical manifestation of the brain tumor progression in animals (3–4 weeks after intracranial tumor cells injection) peptides were i.v. injected and the peptides biodistribution was assessed employing IVIS in vivo Imaging System (PerkinElmer, USA). […]
Processing of the obtained luminescence images was performed using Living Image 4.7.4 firmware. The luminescence signals were read from the color maps of the obtained images by selecting the ROI contour (region of interest). […]

## CC(C)C[C@H](NC(=O)[C@H](CC(C)C)NC(=O)[C@H](CC(N)=O)NC(=O)[C@H](CC(N)=O)NC(=O)[C@H](CC(=O)O)NC(=O)[C@H](CCCCN)NC(=O)[C@@H](N)[C@@H](C)O)C(=O)NCC(=O)N[C@@H](CCCNC(=N)N)C(=O)N[C@@H](Cc1ccccc1)C(=O)N[C@@H](CCC(=O)O)C(=O)N[C@@H](CC(C)C)C(=O)N[C@@H](CO)C(=O)NCC(=O)NCCC(=O)N[C@@H](CCCNC(=N)N)C(=O)NCC(=O)N[C@@H](CC(=O)O)C(=O)O [RAS70]
  presence in normal brain tissue of animals: non-specific presence of the RAS70 in blood vessel but not in normal brain cells
iv
  rank order of organ accumulation (biodistribution): kidney > liver > small intestine > lungs
